Data as given in ChEMBL document CHEMBL1143353, “Pyrazolo[1,5-a]-1,3,5-triazine as a purine bioisostere: access to potent cyclin-dependent kinase inhibitor (R)-roscovitine analogue” (J Med Chem, 2009).

Assays:
SK-MEL-5 = assay: cells; details: Homo sapiens, SK-MEL-5, 72 h
Description: Antiproliferative activity against human SK-MEL-5 cells after 72 hrs by ViaLight assay

PC-3 = assay: cells; details: Homo sapiens, PC-3, 72 h
Description: Antiproliferative activity against human PC3 cells after 72 hrs by ViaLight assay

MOLT-4 = assay: cells; details: Homo sapiens, MOLT-4, 72 h
Description: Antiproliferative activity against human MOLT4 cells after 72 hrs by ViaLight assay

NCI-H460 = assay: cells; details: Homo sapiens, NCI-H460, 72 h
Description: Antiproliferative activity against human NCI-H460 cells after 72 hrs by ViaLight assay

cells = details: Homo sapiens, RPMI8266, 72 h
Description: Antiproliferative activity against human RPMI8266 cells after 72 hrs by ViaLight assay

HCT-116 = assay: cells; details: Homo sapiens, HCT-116, 72 h
Description: Antiproliferative activity against human HCT116 cells after 72 hrs by ViaLight assay

SF-539 = assay: cells; details: Homo sapiens, SF-539, 72 h
Description: Antiproliferative activity against human SF539 cells after 72 hrs by ViaLight assay

HCT-15 = assay: cells; details: Homo sapiens, HCT-15, 72 h
Description: Antiproliferative activity against human HCT15 cells after 72 hrs by ViaLight assay

SNB-75 = assay: cells; details: Homo sapiens, SNB-75, 72 h
Description: Antiproliferative activity against human SNB75 cells after 72 hrs by ViaLight assay

OVCAR-5 = assay: cells; details: Homo sapiens, OVCAR-5, 72 h
Description: Antiproliferative activity against human OVCAR5 cells after 72 hrs by ViaLight assay

TK-10 = assay: cells; details: Homo sapiens, TK-10, 72 h
Description: Antiproliferative activity against human TK10 cells after 72 hrs by ViaLight assay

[1] = Inhibition of starfish oocytes CDK1/cyclin B; parameters: species or system Marthasterias glacialis; details: oocyte
M14 = assay: cells; details: Homo sapiens, M14, 72 h
Description: Antiproliferative activity against human M14 cells after 72 hrs by ViaLight assay

KM12 = assay: cells; details: Homo sapiens, KM12, 72 h
Description: Antiproliferative activity against human KM12 cells after 72 hrs by ViaLight assay

MDA-MB-435 = assay: cells; details: Homo sapiens, MDA-MB-435, 72 h
Description: Antiproliferative activity against human MDA-MB-435 cells after 72 hrs by ViaLight assay

CC[C@H](CO)Nc1nc(NCc2ccccc2)n2ncc(C(C)C)c2n1 gave a CC50 (SK-MEL-5; read-out: LC50) of 17.4 µM, a GI50 (SK-MEL-5; read-out: pGI50 (converted)) of 1780 nM and a CC50 (SK-MEL-5; read-out: pLC50 (converted)) of 17.4 µM. It also gave a TGI (SK-MEL-5; read-out: pTGI) of 5.01 µM, a GI50 (PC-3) of 930 nM and a TGI (PC-3) of 12.3 µM. The CC50 (PC-3; read-out: LC50) was > 100 µM, the GI50 (PC-3; read-out: pGI50 (converted)) was 117 nM and the CC50 (PC-3; read-out: pLC50 (converted)) was 100 µM. The TGI (PC-3; read-out: pTGI) was 0.123 µM, the GI50 (MOLT-4) was 2180 nM and the TGI (MOLT-4) was 9.45 µM. For the same compound, the CC50 (MOLT-4; read-out: LC50) was > 100 µM, the GI50 (MOLT-4; read-out: pGI50 (converted)) was 2190 nM and the CC50 (MOLT-4; read-out: pLC50 (converted)) was 100 µM. It also gave a TGI (MOLT-4; read-out: pTGI) of 9.55 µM, a GI50 (NCI-H460) of 1050 nM and a TGI (NCI-H460) of 10.9 µM. For the same compound, the CC50 (NCI-H460; read-out: LC50) was > 100 µM, the GI50 (NCI-H460; read-out: pGI50 (converted)) was 1050 nM and the CC50 (NCI-H460; read-out: pLC50 (converted)) was 100 µM. The TGI (NCI-H460; read-out: pTGI) was 11 µM, the GI50 (cells) was 2230 nM and the TGI (cells) was 6.93 µM. The CC50 (cells; read-out: LC50) was > 100 µM, the GI50 (cells; read-out: pGI50 (converted)) was 2240 nM and the CC50 (cells; read-out: pLC50 (converted)) was 100 µM. For the same compound, the TGI (cells; read-out: pTGI) was 6.92 µM, the GI50 (HCT-116) was 510 nM and the TGI (HCT-116) was 15 µM. The CC50 (HCT-116; read-out: LC50) was > 100 µM, the GI50 (HCT-116; read-out: pGI50 (converted)) was 513 nM and the CC50 (HCT-116; read-out: pLC50 (converted)) was 100 µM. It also gave a TGI (HCT-116; read-out: pTGI) of 15.1 µM, a GI50 (SF-539) of 1220 nM and a TGI (SF-539) of 3.62 µM. It also gave a CC50 (SF-539; read-out: LC50) of 11.9 µM, a GI50 (SF-539; read-out: pGI50 (converted)) of 1230 nM and a CC50 (SF-539; read-out: pLC50 (converted)) of 11.7 µM. For the same compound, the TGI (SF-539; read-out: pTGI) was 3.63 µM, the GI50 (HCT-15) was 0.87 µM and the TGI (HCT-15) was 10.5 µM. For the same compound, the CC50 (HCT-15; read-out: LC50) was > 100 µM, the GI50 (HCT-15; read-out: pGI50 (converted)) was 8.91 µM and the CC50 (HCT-15; read-out: pLC50 (converted)) was 100 µM. For the same compound, the TGI (HCT-15; read-out: pTGI) was 10.5 µM, the GI50 (SNB-75) was 1310 nM and the TGI (SNB-75) was 3.33 µM. It also gave a CC50 (SNB-75; read-out: LC50) of 8.48 µM, a GI50 (SNB-75; read-out: pGI50 (converted)) of 1320 nM and a CC50 (SNB-75; read-out: pLC50 (converted)) of 8.51 µM. It also gave a TGI (SNB-75; read-out: pTGI) of 3.31 µM, a GI50 (OVCAR-5) of 1850 nM and a TGI (OVCAR-5) of 15 µM. The CC50 (OVCAR-5; read-out: LC50) was > 100 µM, the GI50 (OVCAR-5; read-out: pGI50 (converted)) was 1780 nM and the CC50 (OVCAR-5; read-out: pLC50 (converted)) was 100 µM. For the same compound, the TGI (OVCAR-5; read-out: pTGI) was 15.1 µM, the GI50 (TK-10) was 2000 nM and the TGI (TK-10) was 10.9 µM. For the same compound, the CC50 (TK-10; read-out: LC50) was > 100 µM, the GI50 (TK-10; read-out: pGI50 (converted)) was 2000 nM and the CC50 (TK-10; read-out: pLC50 (converted)) was 100 µM. The TGI (TK-10; read-out: pTGI) was 11 µM, the IC50 [1] was 73 nM and the GI50 (M14) was 2000 nM. For the same compound, the TGI (M14) was 7.93 µM, the CC50 (M14; read-out: LC50) was 34.3 µM and the GI50 (M14; read-out: pGI50 (converted)) was 2000 nM. For the same compound, the CC50 (M14; read-out: pLC50 (converted)) was 34.7 µM, the TGI (M14; read-out: pTGI) was 7.94 µM and the GI50 (KM12) was 710 nM. It also gave a TGI (KM12) of 2790 nM, a CC50 (KM12; read-out: LC50) of 9.3 µM and a GI50 (KM12; read-out: pGI50 (converted)) of 708 nM. The CC50 (KM12; read-out: pLC50 (converted)) was 9.77 µM, the TGI (KM12; read-out: pTGI) was 2820 nM and the GI50 (MDA-MB-435) was 2060 nM. It also gave a TGI (MDA-MB-435) of 10.1 µM, a CC50 (MDA-MB-435; read-out: LC50) of 41.4 µM and a GI50 (MDA-MB-435; read-out: pGI50 (converted)) of 2090 nM. For the same compound, the CC50 (MDA-MB-435; read-out: pLC50 (converted)) was 41.7 µM and the TGI (MDA-MB-435; read-out: pTGI) was 10 µM.
